This is an account of results in US11319289B2, “5-hydroxy pyridine-based compound for use as P2X1 and P2X3 receptor antagonist and pharmaceutical composition comprising same” (GWANGJU INSTITUTE OF SCIENCE AND TECHNOLOGY, priority 2017, dated 2022).

In data set [1] the target is T1, human P2X3 receptor (hP2X3) (Homo sapiens, UniProt P56373).
T1 construct: expressed in transfected cells; host or cells: Xenopus oocytes (cRNA microinjection)
T1 sequence (P56373 1-397): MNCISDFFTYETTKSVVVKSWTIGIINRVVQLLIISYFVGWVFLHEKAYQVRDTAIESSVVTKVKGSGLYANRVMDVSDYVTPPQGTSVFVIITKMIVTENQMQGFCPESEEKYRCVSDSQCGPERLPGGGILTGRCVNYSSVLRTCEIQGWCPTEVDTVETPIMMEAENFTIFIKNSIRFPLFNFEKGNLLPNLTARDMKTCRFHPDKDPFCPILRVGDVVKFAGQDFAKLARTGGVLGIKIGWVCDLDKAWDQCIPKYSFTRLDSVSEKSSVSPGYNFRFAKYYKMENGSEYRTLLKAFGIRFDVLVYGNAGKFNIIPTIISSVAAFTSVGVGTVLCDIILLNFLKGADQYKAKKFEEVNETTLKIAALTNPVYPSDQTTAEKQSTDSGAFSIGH
Kind of data set: Two-electrode voltage clamp assay, recombinant hP2X3 receptor in Xenopus oocytes. Type of data set: cell-based. The note with it: for IC50: 2 μM ATP-evoked current, Xenopus oocytes, mean±SEM n≥3 (footnote d). A digest of the protocol:
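Xenopus oocytes injected with mP2X1 or hP2X3 cRNA; ATP-activated currents recorded by two-electrode voltage clamp at Vh=−70 mV in Ringer's solution (pH 7.5, 18° C.). Compounds applied 20 min before 2 μM ATP; IC50 from Hill plots of ATP-evoked current inhibition, mean±SEM (n≥3).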
On the technique in general: Two-electrode voltage clamp holds a large cell at a set potential and records current.

Data set [2] can be described thus: Plasma protein binding by rapid equilibrium dialysis, human. Type of data set: in vitro ADME. The note with it: plasma (50% in PBS). How it is done: Plasma protein binding was measured by rapid equilibrium dialysis (RED). A DMSO stock solution of the compounds was prepared at a concentration of 10 mM and diluted to a concentration of […] with 50% plasma in phosphate buffered saline (PBS, pH 7.4). Plasma samples (100 μL) and PBS (300 μL) were added to the sample chamber and the buffer chamber, respectively, after which the RED device was turn on and the samples were incubated in a shaking incubator at 37° C. for 4 hours. After dialysis, 50 μl aliquots were collected from each side of the chamber. 50 μl of blank plasma was added to the buffer sample, and 50 μl of PBS was also added to the plasma sample. 200 μL of acetonitrile containing an internal standard was added to each sample. The samples were centrifuged at 3200 g for 20 minutes at 4° C., and the supernatants were obtained and analyzed by an LC-MS/MS system. The plasma protein binding rate was calculated as follows: Free form (%)=(Buffer chamber/Plasma chamber)×100 Bound form (%)=100−Free form (%).

Data set [3] deals with SNL rats (mechanical allodynia). Description: Antiallodynic effect (von Frey) in spinal nerve ligation (SNL) rats. Format: in vivo, rat. How it is done:
3-1. Evaluation of In Vivo Efficacy
The antiallodynic effects (mechanical allodynia) were evaluated using rats according to a previously reported protocol. In order to evaluate the withdrawal threshold, rats (naive, SNL and CIPN) were placed on a plastic mesh floor of individual plastic cages. The rats were allowed to acclimate to the environment for 30 minutes and examined after intrathecal or intravenous administration to the caudal vein. The control group received the same volume of vehicle (intrathecal administration of saline or DMSO, intravenous administration of DMSO:PEG:PBS=1:6:3 v/v %) as the experimental groups. Evaluation of the mechanical withdrawal threshold was measured in responses to the application of calibrated von Frey filaments (Stoelting, Wood Dale, Ill., USA) to the hind paw of the rats through the holes on the mesh floor underneath the cage using the ‘up and down method’. A series of eight von Frey filaments (0.4, 0.7, 1.2, 2.0, 3.6, 5.5, 8.5, and 15 g) was applied perpendicular to the sole of the hind paw for 5 seconds while the head was bent. Active withdrawal or flinching of the paw was considered as a positive reaction. The absence of response in the rats, when a pressure was applied to 15 g von Frey filament, was used as a cut-off value. Only rats with definite allodynia (i.e., mechanical withdrawal threshold: less than 4 g after SNL or less than 5 g after CIPN) were tested. The rats after termination of the experiments were euthanized through an overdose of sevoflurane. The withdrawal threshold data for the von Frey filament test was calculated as % MPE (maximum possible effect) based on the following Calculation Equation: % MPE=[(Post-drug threshold−Post-injured baseline threshold)/(Cutoff threshold−post-injured baseline threshold)×100]. Dose-response data were analyzed using Scheffe's post hoc test and one-way analysis of variance (ANOVA).

[4] abbreviates: pH 7.4, human plasma, read-out: Plasma protein binding rate, Human (converted).

Like-named read-outs stand apart in the source and are kept apart here.

In the case of `CCCc1nc(CCc2ccc(OC)cc2)c(C(=O)O)c(C(=O)O)c1O` [Compound 13d, 5-Hydroxy-2-(4-methoxyphenethyl)-6-propylpyridine-3,4-dicarboxylic acid], in data set [1], the IC50 (in general, the concentration that inhibits the measured activity by half) worked out at 93 nM. For the same molecule, the “selectivity for hP2X3R to mP2X1R” value in data set [1] (hP2X3R versus mP2X1R) is recorded as “about 100 fold”.

On to `CCCc1nc(Cc2cccc(Oc3ccccc3)c2)c(C)c(C(=O)OC)c1O` [Compound 28, Methyl 3-hydroxy-5-methyl-6-(3-phenoxybenzyl)-2-propylisonicotinate], for which the fraction unbound at 4 h, 5 µM in data set [2] (setting [4]) was 0.005. Moreover, in data set [3] (Rattus norvegicus, antiallodynic effect, intravenous administration), the ED50 (usually the midpoint of the dose-response relation) is 2.62 mg/kg.

For the molecule `CCCc1nc(Cc2cccc(Oc3ccccc3)c2)c(C)c(C(=O)O)c1O` [Compound 29, 3-Hydroxy-5-methyl-6-(3-phenoxybenzyl)-2-propylisonicotinic acid], the fraction unbound at 4 h, 5 µM in data set [2] (setting [4]) is 0.001 ± 6.01e-07; in data set [2] (pH 7.4, species not given, read-out: plasma protein binding), < 0.01. Further, the “antiallodynic efficacy, MPE %” value in data set [3] (1 μg, intrathecal administration) is recorded as 58±19%. Moreover, the paw withdrawal threshold entry in data set [3] (intrathecal administration, von Frey) is listed as “increase in paw withdrawal threshold”. Also, the IC50 in data set [1] came out at 245 nM.
